Laboratory results reported in ChEMBL document CHEMBL1641539 (Bioorg Med Chem Lett, 2011).

Assays:
[1] = target: Serine/threonine-protein kinase mTOR (Homo sapiens) (UniProt P42345); assay: Inhibition of human mTOR at 10 uM after 60 mins by TR-FRET assay; details: values are per cent of control
[2] = target: Serine/threonine-protein kinase VRK2 (Homo sapiens) (UniProt Q86Y07); assay: Inhibition of human VRK2 at 10 uM after 60 mins by TR-FRET assay; values are per cent of control
[3] = target: Hepatocyte growth factor receptor (Homo sapiens) (UniProt P08581); assay: Inhibition of human Met at 10 uM after 60 mins by TR-FRET assay; details: values are per cent of control
[4] = target: Mitogen-activated protein kinase 1 (Homo sapiens, UniProt P28482); assay: Inhibition of human MAPK2 at 10 uM after 60 mins by TR-FRET assay; details: values are per cent of control
Chain of Mitogen-activated protein kinase 1 (P28482 whole entry): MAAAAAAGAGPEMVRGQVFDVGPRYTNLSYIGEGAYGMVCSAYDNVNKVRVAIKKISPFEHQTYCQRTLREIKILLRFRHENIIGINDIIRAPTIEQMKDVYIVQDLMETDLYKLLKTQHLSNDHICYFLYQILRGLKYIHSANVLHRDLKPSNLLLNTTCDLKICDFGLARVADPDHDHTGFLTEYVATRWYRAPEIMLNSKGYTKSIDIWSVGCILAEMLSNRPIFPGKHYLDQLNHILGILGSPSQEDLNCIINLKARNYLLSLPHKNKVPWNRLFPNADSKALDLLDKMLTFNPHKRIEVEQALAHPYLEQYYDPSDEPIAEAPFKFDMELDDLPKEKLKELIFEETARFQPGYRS

[5] = target: Protein kinase C iota type (Homo sapiens) (UniProt P41743); assay: Inhibition of human PKCiota at 10 uM after 60 mins by TR-FRET assay; values are per cent of control
[6] = target: Tyrosine-protein kinase JAK2 (Homo sapiens) (UniProt O60674); assay: Inhibition of human JAK2 at 10 uM after 60 mins by TR-FRET assay; details: values are per cent of control
[7] = organism: Rattus norvegicus; assay: Inhibition of rat AMPK at 10 uM after 60 mins by TR-FRET assay; values are per cent of control
[8] = target: Proto-oncogene tyrosine-protein kinase Src (Homo sapiens) (UniProt P12931); assay: Inhibition of human c-SRC at 10 uM after 60 mins by TR-FRET assay; values are per cent of control
Chain of Proto-oncogene tyrosine-protein kinase Src (Homo sapiens) (P12931 2-536 limits assumed): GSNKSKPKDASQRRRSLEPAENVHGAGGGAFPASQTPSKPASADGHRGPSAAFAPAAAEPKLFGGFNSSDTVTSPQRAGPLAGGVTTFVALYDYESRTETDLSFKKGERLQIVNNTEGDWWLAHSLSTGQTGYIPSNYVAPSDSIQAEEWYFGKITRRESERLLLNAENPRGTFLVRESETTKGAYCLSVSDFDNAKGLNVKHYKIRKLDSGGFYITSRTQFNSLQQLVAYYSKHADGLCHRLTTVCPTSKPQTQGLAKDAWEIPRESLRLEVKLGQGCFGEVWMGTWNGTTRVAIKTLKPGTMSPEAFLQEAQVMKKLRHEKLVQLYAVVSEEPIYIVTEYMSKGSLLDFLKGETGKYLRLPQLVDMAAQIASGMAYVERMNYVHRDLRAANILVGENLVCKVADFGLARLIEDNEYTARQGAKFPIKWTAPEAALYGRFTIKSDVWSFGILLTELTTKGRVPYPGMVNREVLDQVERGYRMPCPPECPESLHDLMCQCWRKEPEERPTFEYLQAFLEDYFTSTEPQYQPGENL

[9] = target: Serine/threonine-protein kinase pim-3 (Homo sapiens) (UniProt Q86V86); assay: Inhibition of human Pim-3 at 10 uM after 60 mins by TR-FRET assay; values are per cent of control
[10] = target: Serine/threonine-protein kinase SIK1 (Homo sapiens) (UniProt P57059); assay: Inhibition of human SIK at 10 uM after 60 mins by TR-FRET assay; details: values are per cent of control
[11] = target: SRSF protein kinase 1 (Homo sapiens) (UniProt Q96SB4); assay: Inhibition of human SRPK1 at 10 uM after 60 mins by TR-FRET assay; values are per cent of control
Chain of SRSF protein kinase 1 (Homo sapiens) (Q96SB4 whole entry): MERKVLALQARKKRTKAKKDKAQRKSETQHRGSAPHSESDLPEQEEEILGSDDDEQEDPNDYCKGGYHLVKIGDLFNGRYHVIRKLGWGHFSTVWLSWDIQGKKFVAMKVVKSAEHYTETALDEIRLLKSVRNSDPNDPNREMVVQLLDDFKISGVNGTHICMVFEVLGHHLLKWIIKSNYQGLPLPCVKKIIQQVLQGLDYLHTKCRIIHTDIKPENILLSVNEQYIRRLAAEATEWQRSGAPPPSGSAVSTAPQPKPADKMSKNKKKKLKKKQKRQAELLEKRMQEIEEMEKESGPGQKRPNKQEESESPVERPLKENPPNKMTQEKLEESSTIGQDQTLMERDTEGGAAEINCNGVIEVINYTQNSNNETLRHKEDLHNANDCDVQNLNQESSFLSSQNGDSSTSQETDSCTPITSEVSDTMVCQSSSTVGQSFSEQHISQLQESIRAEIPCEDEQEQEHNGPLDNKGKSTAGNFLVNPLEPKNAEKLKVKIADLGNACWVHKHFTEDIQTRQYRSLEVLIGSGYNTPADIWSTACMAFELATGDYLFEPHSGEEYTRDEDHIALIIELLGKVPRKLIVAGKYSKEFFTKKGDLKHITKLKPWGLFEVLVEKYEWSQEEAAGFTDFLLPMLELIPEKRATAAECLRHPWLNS

[12] = target: Tyrosine-protein kinase Fer (Homo sapiens) (UniProt P16591); assay: Inhibition of human Fer at 10 uM after 60 mins by TR-FRET assay; values are per cent of control
[13] = target: Serine/threonine-protein kinase MARK1 (Homo sapiens) (UniProt Q9P0L2); assay: Inhibition of human MARK1 at 10 uM after 60 mins by TR-FRET assay; values are per cent of control
Chain of Serine/threonine-protein kinase MARK1 (Homo sapiens) (Q9P0L2 whole entry, looked up): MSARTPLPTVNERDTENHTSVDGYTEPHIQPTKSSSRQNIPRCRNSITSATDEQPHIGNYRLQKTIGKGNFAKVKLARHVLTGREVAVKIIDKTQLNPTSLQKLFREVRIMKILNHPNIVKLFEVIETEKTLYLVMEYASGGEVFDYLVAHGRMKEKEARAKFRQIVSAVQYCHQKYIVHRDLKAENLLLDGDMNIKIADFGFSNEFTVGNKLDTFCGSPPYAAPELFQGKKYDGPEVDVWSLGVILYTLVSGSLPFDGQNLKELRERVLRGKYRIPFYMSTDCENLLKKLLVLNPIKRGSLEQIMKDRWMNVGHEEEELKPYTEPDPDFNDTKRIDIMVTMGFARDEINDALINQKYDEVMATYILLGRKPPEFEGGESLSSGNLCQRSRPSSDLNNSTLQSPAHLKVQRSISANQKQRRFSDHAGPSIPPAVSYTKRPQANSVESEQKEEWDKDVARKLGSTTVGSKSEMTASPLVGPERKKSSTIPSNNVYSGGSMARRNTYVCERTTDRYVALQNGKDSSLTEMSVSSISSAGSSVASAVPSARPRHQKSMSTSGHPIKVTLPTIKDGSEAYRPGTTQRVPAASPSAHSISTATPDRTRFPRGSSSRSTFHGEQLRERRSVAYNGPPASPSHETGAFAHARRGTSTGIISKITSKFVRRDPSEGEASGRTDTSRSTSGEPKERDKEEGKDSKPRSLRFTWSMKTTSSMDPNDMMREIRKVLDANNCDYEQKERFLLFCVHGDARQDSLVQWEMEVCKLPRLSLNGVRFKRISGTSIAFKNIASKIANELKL

[14] = target: Death-associated protein kinase 2 (Homo sapiens) (UniProt Q9UIK4); assay: Inhibition of human DAPK2 at 10 uM after 60 mins by TR-FRET assay; values are per cent of control
[15] = target: Platelet-derived growth factor receptor alpha (Homo sapiens) (UniProt P16234); assay: Inhibition of human PDGFRalpha at 10 uM after 60 mins by TR-FRET assay; values are per cent of control
Chain of Platelet-derived growth factor receptor alpha (Homo sapiens) (P16234 whole entry): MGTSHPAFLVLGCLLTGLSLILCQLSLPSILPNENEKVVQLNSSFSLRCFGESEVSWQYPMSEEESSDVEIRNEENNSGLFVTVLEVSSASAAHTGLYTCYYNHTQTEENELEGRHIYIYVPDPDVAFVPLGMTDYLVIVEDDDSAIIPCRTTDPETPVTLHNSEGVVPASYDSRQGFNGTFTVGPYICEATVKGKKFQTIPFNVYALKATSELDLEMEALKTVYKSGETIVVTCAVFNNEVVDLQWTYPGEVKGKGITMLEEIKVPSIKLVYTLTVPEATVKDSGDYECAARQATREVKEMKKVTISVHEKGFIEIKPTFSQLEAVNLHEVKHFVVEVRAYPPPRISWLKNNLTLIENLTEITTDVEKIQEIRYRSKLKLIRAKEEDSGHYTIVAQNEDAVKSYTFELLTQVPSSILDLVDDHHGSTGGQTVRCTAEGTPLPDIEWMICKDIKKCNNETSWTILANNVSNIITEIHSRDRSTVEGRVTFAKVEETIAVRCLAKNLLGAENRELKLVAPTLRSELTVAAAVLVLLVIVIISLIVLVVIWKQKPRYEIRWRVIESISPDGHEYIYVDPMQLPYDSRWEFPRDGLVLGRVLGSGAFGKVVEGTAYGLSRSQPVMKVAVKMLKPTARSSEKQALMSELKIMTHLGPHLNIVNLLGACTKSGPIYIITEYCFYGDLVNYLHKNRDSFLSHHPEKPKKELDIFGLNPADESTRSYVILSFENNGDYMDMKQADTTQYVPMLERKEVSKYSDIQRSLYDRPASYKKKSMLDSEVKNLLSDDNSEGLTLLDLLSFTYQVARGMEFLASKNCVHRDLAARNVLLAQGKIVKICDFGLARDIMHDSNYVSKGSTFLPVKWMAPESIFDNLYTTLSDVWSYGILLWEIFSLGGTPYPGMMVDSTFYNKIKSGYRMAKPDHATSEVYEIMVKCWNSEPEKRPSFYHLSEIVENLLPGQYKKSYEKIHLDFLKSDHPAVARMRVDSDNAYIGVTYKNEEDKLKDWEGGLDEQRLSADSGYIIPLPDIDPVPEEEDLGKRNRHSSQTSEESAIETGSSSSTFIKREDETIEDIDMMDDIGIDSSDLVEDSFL

[16] = target: Receptor-interacting serine/threonine-protein kinase 2 (Homo sapiens) (UniProt O43353); assay: Inhibition of human RIPK2 at 10 uM after 60 mins by TR-FRET assay; values are per cent of control
[17] = target: Cyclin-dependent kinase 2/cyclin E (Homo sapiens) (UniProt P24864+P24941+O96020); assay: Inhibition of human CDK2/cyclinE at 10 uM after 60 mins by TR-FRET assay; values are per cent of control
[18] = system: Tyrosine-protein kinase ABL1 (Homo sapiens), P00519 [H396P]; assay: Inhibition of human Abl H396P mutant at 10 uM after 60 mins by TR-FRET assay; values are per cent of control
[19] = target: Insulin-like growth factor 1 receptor (Homo sapiens) (UniProt P08069); assay: Inhibition of human IGF-1R at 10 uM after 60 mins by TR-FRET assay; values are per cent of control
[20] = target: Focal adhesion kinase 1 (Homo sapiens) (UniProt Q05397); assay: Inhibition of human FAK at 10 uM after 60 mins by TR-FRET assay; values are per cent of control
[21] = target: Interleukin-1 receptor-associated kinase 4 (Homo sapiens) (UniProt Q9NWZ3); assay: Inhibition of human IRAK4 at 10 uM after 60 mins by TR-FRET assay; details: values are per cent of control
[22] = target: Tyrosine-protein kinase SYK (Homo sapiens) (UniProt P43405); assay: Inhibition of human Syk at 10 uM after 60 mins by TR-FRET assay; details: values are per cent of control
[23] = target: Proto-oncogene tyrosine-protein kinase ROS (Homo sapiens) (UniProt P08922); assay: Inhibition of human Ros at 10 uM after 60 mins by TR-FRET assay; values are per cent of control
[24] = system: Mast/stem cell growth factor receptor Kit (Homo sapiens), P10721 [V560G]; assay: Inhibition of human c-Kit V560G mutant at 10 uM after 60 mins by TR-FRET assay; values are per cent of control
[25] = target: Glycogen synthase kinase-3 alpha (Homo sapiens) (UniProt P49840); assay: Inhibition of human GSK3alpha at 10 uM after 60 mins by TR-FRET assay; values are per cent of control
[26] = target: Casein kinase II subunit alpha' (Homo sapiens) (UniProt P19784); assay: Inhibition of human CK2a2 at 10 uM after 60 mins by TR-FRET assay; values are per cent of control
[27] = target: Protein kinase C theta type (Homo sapiens) (UniProt Q04759); assay: Inhibition of human PKCtheta at 10 uM after 60 mins by TR-FRET assay; values are per cent of control
Chain of Protein kinase C theta type (Homo sapiens) (Q04759 whole entry, looked up): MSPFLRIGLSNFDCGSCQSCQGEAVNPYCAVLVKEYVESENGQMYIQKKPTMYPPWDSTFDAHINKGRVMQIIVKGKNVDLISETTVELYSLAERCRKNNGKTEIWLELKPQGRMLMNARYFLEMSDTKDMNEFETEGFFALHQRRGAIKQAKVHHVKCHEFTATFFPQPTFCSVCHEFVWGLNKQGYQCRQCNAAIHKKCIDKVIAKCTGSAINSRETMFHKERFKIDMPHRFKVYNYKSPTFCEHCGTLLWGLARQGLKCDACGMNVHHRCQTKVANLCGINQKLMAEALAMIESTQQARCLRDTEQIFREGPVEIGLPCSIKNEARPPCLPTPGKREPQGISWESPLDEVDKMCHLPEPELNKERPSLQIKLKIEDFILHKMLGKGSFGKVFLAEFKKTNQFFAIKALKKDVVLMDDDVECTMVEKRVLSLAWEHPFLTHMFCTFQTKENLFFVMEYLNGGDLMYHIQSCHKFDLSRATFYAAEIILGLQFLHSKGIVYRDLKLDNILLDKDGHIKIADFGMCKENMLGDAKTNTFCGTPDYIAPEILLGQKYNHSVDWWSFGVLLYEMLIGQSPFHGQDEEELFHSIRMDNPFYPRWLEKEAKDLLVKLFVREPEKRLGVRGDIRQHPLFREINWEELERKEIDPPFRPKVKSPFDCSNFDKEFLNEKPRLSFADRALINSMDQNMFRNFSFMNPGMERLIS

[28] = target: Serine/threonine-protein kinase 24 (Homo sapiens) (UniProt Q9Y6E0); assay: Inhibition of human MST3 at 10 uM after 60 mins by TR-FRET assay; details: values are per cent of control
[29] = target: Serine/threonine-protein kinase 4 (Homo sapiens) (UniProt Q13043); assay: Inhibition of human MST1 at 10 uM after 60 mins by TR-FRET assay; details: values are per cent of control
[30] = target: Cytoplasmic tyrosine-protein kinase BMX (Homo sapiens) (UniProt P51813); assay: Inhibition of human Bmx at 10 uM after 60 mins by TR-FRET assay; values are per cent of control
Chain of Cytoplasmic tyrosine-protein kinase BMX (Homo sapiens) (P51813 whole entry): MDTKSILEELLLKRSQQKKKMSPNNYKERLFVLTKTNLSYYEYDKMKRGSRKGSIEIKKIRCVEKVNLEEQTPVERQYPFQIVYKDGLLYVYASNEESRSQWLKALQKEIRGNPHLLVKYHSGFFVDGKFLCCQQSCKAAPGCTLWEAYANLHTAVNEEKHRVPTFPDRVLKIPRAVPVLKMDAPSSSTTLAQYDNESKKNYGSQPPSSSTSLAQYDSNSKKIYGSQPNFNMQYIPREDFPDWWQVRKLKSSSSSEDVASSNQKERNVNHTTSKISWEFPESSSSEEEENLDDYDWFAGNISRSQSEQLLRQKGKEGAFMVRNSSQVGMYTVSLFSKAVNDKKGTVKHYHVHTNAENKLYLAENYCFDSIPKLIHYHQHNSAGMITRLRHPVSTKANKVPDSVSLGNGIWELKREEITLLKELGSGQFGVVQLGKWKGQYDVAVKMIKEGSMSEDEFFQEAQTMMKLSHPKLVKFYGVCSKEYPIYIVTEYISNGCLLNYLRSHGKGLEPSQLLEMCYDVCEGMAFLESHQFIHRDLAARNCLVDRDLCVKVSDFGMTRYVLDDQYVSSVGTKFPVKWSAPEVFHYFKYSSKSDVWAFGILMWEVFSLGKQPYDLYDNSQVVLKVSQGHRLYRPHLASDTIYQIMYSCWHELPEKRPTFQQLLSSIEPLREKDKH

residual activity [1]: 98% | residual activity [2]: 122% | residual activity [3]: 108% | residual activity [4]: 114% | residual activity [5]: 98% | residual activity [6]: 110% | residual activity [7]: 108% | residual activity [8]: 93% | residual activity [9]: 99% | residual activity [10]: 117% | residual activity [11]: 93% | residual activity [12]: 99% | residual activity [13]: 113% | residual activity [15]: 99% | residual activity [16]: 111% | residual activity [17]: 108% | residual activity [18]: 107% | residual activity [19]: 115% | residual activity [20]: 106% | residual activity [21]: 114% | residual activity [22]: 116% | residual activity [23]: 100% | residual activity [24]: 102% | residual activity [25]: 85% | residual activity [26]: 108% | residual activity [27]: 114% | residual activity [28]: 111% | residual activity [29]: 112% | residual activity [30]: 136%
SMILES: S=c1[nH]nc(-c2ccncc2)n1-c1ccc2ccccc2c1
residual activity [14]: 108%
